Laboratory results taken from ChEMBL document CHEMBL1201862, “PubChem BioAssay data set” (2004).
Activity calls are given as the source filed them.

Columns and labels:
Jurkat = test: SAR Analysis of small molecule inhibitors of […] specific antigen receptor-induced NF-kB activation in a Jurkat cell line using a luminescence assay - Set 3. [Related pubchem assays (depositor defined):AID435022, AID435025, AID465]; format: functional, cell-based; settings: Homo sapiens
HEK293 [1] = test: SAR Analysis of small molecule inhibitors of B-cell specific antigen receptor-induced NF-kB activation in a HEK-293T cell line using a luminescence assay - Set 2. [Related pubchem assays (depositor defined):AID435022, AID435025, AID489021]; format: functional, cell-based; settings: Homo sapiens
HEK293 [2] = test: HEK293T cell viability loss, resazurin readout – resazurin fluorescence, cytotoxicity control for NF-kB activator project, SAR follow-up (AID 493251); format: functional, cell-based; settings: Homo sapiens
[3] = molecular target: T1, Endoribonuclease toxin MazF (Escherichia coli K-12, UniProt P0AE70); test: MazEF toxin-antitoxin RNase activation – biochemical, fluorescence, single-stranded RNA substrate, SAR follow-up (AID 588603); format: functional
T1 sequence (P0AE70 whole entry): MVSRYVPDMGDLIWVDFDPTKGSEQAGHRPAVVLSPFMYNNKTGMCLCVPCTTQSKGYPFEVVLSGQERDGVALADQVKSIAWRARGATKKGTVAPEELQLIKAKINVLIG

[4] = molecular target: T1, Endoribonuclease toxin MazF; test: activation of MazEF endoribonuclease cleavage – biochemical, fluorescence, single-stranded RNA substrate, uHTS hits, dose response (AID 588481); format: functional
MEF = test: SAR analysis of small molecule cytotoxicity of MazEF TA System activators in embryonic fibroblast (MEF) cells. [Related pubchem assays (depositor defined):AID504720, AID504743]; format: functional; settings: Mus musculus
[5] = molecular target: T1, Endoribonuclease toxin MazF; test: SAR analysis of small molecule activators of the MazEF TA System via a fluorescence-based single-stranded RNase assay counterscreen. [Related pubchem assays (depositor defined):AID504720, AID504743]; format: functional
[6] = molecular target: T1, Endoribonuclease toxin MazF; test: substrate-only fluorescence increase artefacts – biochemical, single-stranded RNase substrate, counter-screen for MazEF activator project, dose response (AID 588502); format: functional
Caspase-3 = molecular target: T2, Caspase-3 (Homo sapiens, UniProt P42574); format: functional;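 note: Dose-response selectivity test against caspase-3 for candidate inhibitors of sentrin-specific proteases (SENPs)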
T2 sequence (P42574 whole entry): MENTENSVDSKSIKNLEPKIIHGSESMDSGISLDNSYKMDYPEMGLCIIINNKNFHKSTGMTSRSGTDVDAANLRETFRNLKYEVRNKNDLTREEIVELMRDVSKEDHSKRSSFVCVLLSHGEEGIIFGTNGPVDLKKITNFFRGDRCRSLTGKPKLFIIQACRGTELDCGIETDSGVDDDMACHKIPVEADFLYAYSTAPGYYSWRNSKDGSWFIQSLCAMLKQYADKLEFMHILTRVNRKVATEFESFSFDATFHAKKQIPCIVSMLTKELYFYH

[7] = molecular target: T3, Sentrin-specific protease 7 (Homo sapiens, UniProt Q9BQF6); format: functional;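 note: Luminescence-based dose-response confirmation of ultra-high-throughput screening hits, measuring inhibition of SENP7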
T3 sequence (Q9BQF6 whole entry): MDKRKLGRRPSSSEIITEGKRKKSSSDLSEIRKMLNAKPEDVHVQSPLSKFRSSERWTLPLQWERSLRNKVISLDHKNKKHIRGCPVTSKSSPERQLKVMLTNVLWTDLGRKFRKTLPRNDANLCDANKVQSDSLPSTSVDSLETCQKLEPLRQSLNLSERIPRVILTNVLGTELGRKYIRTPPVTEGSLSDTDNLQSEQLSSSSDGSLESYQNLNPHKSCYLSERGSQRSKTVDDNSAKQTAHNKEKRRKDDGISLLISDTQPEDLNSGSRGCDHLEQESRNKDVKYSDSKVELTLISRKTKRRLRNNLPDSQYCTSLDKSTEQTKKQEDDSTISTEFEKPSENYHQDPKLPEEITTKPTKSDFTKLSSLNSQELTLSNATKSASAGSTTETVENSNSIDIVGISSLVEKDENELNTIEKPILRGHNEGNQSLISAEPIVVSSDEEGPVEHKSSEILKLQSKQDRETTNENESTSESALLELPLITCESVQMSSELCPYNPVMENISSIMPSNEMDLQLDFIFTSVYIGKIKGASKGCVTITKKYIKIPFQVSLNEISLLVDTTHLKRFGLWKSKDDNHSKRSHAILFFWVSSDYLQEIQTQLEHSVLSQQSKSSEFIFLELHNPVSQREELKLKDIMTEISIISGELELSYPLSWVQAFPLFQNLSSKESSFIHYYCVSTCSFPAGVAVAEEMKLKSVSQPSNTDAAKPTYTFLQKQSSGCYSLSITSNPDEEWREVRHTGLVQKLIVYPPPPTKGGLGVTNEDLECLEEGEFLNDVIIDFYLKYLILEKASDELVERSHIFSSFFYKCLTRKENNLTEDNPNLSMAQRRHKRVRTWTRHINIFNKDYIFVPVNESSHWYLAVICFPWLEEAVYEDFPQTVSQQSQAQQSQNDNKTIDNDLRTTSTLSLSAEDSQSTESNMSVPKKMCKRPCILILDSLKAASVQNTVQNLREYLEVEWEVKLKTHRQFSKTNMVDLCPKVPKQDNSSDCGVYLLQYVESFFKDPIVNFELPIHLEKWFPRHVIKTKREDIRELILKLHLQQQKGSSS

[8] = molecular target: T4, Sentrin-specific protease 6 (Homo sapiens, UniProt Q9GZR1); format: functional;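 note: Luminescence-based dose-response confirmatory assay of SENP6 inhibition, following up an ultra-high-throughput screen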
T4 sequence (Q9GZR1 whole entry): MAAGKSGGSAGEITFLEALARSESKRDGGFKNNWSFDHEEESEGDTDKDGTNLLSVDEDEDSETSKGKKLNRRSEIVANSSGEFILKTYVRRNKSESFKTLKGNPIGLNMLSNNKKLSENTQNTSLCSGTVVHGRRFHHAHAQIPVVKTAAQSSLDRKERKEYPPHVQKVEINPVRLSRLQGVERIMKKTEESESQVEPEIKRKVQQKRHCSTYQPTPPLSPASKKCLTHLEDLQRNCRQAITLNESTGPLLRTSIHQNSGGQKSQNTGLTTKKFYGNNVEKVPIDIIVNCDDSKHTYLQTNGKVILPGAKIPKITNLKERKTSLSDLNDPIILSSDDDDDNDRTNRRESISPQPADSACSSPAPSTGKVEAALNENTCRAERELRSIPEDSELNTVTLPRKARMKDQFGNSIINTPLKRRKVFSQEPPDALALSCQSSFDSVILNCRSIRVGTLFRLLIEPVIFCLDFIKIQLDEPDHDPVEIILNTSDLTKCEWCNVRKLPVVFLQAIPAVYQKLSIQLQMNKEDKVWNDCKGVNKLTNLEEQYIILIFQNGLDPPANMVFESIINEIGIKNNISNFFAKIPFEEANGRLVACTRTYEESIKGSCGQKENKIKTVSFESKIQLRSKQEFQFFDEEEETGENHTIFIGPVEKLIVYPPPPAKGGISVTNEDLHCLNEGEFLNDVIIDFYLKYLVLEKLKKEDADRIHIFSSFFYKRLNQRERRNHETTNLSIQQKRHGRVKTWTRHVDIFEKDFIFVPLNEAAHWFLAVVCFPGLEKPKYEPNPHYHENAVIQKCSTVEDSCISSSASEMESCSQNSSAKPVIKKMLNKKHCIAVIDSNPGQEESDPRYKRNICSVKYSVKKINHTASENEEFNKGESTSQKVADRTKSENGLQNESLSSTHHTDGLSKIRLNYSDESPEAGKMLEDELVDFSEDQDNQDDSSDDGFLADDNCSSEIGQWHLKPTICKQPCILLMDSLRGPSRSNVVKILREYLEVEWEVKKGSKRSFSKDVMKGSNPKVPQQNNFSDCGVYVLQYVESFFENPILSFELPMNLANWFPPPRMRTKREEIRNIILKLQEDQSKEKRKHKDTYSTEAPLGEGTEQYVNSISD

[9] = molecular target: T5, Sentrin-specific protease 8 (Homo sapiens, UniProt Q96LD8); format: functional;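 note: luminescence read-out of SENP8 inhibition, dose-response confirmation following an ultra-high-throughput screen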
T5 sequence (Q96LD8 whole entry): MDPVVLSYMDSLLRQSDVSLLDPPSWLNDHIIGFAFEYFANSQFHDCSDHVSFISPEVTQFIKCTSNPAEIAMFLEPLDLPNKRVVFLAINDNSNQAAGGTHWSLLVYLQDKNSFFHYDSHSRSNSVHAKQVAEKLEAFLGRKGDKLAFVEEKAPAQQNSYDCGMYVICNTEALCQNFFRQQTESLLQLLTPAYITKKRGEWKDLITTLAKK

[10] = system: Streptococcus sp. 'group A'; test: Streptococcus pyogenes SK(-)GAS viability under kanamycin – luminescence, BacTiterGlo, confirmation, counter-screen for streptokinase expression inhibitor project, dose response (AID 1900); format: functional, organism-based
Streptokinase A = molecular target: T6, Streptokinase A (Streptococcus pyogenes serotype M1, UniProt P10520); test: viability-normalized secreted streptokinase activity reduction – plasminogen activation absorbance, OD405, dose response (AID 1914); format: functional, Streptococcus pyogenes M1 GAS;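 note: secreted streptokinase activity via plasminogen activation per viability signal from cell pellet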
T6 sequence (P10520 whole entry): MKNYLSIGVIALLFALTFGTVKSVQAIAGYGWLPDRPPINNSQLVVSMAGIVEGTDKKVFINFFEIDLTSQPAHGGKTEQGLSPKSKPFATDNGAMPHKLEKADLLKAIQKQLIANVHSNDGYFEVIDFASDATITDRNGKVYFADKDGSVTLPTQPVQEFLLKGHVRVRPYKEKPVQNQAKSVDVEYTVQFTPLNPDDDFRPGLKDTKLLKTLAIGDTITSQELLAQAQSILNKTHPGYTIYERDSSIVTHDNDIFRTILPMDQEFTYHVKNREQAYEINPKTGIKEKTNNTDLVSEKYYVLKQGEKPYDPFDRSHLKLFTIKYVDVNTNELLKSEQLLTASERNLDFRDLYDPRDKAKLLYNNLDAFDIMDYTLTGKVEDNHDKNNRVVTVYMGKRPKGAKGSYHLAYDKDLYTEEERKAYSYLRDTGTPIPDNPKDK

Streptococcus = test: GAS UMAA2166 growth inhibition – luminescence, BacTiterGlo, counter-screen for streptokinase expression inhibitor project, dose response (AID 1915); format: functional, organism-based;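 note: potency for reduction of bacterial viability or growth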
Cysteine protease ATG4B = Cysteine protease ATG4B (Homo sapiens, UniProt Q9Y4P1); format: functional;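 note: Fluorescence-based dose-response confirmation assay measuring inhibition of ATG4B activity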
Phospholipase A2 = Phospholipase A2 (Homo sapiens, UniProt P04054); format: functional;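 note: confirmatory dose-response counterscreen on phospholipase A2, testing hits that came from an ultra-high-throughput screen for ATG4B inhibitors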
HEK293 [11] = test: cells; format: functional, cell-based; settings: Homo sapiens
[12] = molecular target: T7, Nuclear receptor subfamily 0 group B member 1 (Homo sapiens, UniProt P51843); test: Luminescence-based cell-based high throughput dose response assay for inhibitors of the orphan nuclear receptor subfamily 0, group B, member 1 (DAX1; NR0B1). [Related pubchem assays (depositor defined):AID504766, AID504790]; format: functional
T7 sequence (P51843 whole entry): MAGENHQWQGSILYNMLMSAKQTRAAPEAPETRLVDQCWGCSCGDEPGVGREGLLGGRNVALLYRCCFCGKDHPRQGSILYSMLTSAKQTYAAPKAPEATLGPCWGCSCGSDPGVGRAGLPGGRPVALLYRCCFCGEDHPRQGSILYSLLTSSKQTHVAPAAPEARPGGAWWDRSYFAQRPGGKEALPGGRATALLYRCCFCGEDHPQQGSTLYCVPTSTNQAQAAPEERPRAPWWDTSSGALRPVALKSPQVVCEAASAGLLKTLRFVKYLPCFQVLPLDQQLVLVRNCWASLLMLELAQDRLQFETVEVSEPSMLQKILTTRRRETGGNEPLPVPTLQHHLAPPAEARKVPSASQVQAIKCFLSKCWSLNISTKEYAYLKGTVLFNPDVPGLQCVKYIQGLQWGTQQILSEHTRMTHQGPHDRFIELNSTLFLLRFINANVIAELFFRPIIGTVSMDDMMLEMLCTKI

Sequence of Phospholipase A2 (P04054 whole entry): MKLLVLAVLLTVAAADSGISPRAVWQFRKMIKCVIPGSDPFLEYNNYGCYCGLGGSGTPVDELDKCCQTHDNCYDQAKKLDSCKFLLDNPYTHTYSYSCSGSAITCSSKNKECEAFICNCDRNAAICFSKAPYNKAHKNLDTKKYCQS
Sequence of Cysteine protease ATG4B (Q9Y4P1 whole entry): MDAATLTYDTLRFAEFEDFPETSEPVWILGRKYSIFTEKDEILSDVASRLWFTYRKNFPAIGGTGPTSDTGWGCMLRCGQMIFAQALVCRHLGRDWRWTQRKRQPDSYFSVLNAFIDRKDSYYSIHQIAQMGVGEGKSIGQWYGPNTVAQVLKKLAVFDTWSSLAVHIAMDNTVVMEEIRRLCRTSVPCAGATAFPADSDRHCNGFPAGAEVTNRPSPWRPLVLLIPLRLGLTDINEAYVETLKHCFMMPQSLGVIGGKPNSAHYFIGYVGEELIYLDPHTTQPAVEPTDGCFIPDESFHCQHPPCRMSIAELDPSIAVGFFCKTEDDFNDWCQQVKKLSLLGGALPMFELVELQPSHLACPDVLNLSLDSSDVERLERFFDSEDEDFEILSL

In the case of `CCOc1ccc(-c2nc(CSCC(=O)NCc3ccc(C)cc3)c(C)o2)cc1`, the IC50 (Jurkat) is reported as 48.9 µM (inactive), the IC50 (HEK293 [1]) is reported as > 80 µM (inactive) and the IC50 (HEK293 [2]) is reported as > 80 µM (inactive).

With `Cc1[nH]c2ccccc2c1/C=C/c1nc2ccccc2c(=O)n1-c1ccc([N+](=O)[O-])cc1` the EC50 [3] was > 99 µM (inactive), the EC50 [4] was > 99 µM (inactive) and the CC50 (MEF) was > 99 µM (inactive). For the same molecule, the EC50 [5] was > 99 µM (inactive) and the EC50 [6] was > 99 µM (inactive).

`CCSc1nnc(NC(=O)c2ccc(C)cc2)s1` was tested, and the IC50 (Caspase-3) was 28 µM (active), the IC50 [7] was 9.7 µM (active) and the IC50 [8] was > 100 µM (inactive). The IC50 [9] was > 100 µM (inactive).

With `COC(=O)/C=C1\SC(Nc2ccc(Cl)c(Cl)c2)=NC1=O` the EC50 [10] was 10 µM (active), the EC50 (Streptokinase A) was 15.4 µM (active) and the EC50 (Streptococcus) was 16.9 µM (active). For the same molecule, the IC50 (Cysteine protease ATG4B) was 16.9 µM (active) and the IC50 (Phospholipase A2) was 11 µM (active).

`Cc1ccc2[nH]c(-c3ccc(NC(=O)c4ccco4)cc3)nc2c1` was tested, and the IC50 (Caspase-3) was 29.6 µM (active), the IC50 [7] was 6.23 µM (active) and the IC50 [8] was > 100 µM (inactive). For the same molecule, the IC50 [9] was 30.8 µM (active).

With `C=CCNC(=O)CCc1nc(-c2ccc(C(C)(C)C)cc2)no1` the IC50 (Jurkat) was 25.2 µM (inactive), the IC50 (HEK293 [1]) was 5.3 µM (active) and the IC50 (HEK293 [2]) was > 80 µM (inactive).

For `O=[N+]([O-])c1ccc(S(=O)(=O)N/N=C/c2c[nH]c3ccccc23)cc1`, the EC50 [3] was 56.8 µM (inactive), the CC50 (MEF) was > 99 µM (inactive) and the EC50 [5] was > 99 µM (inactive).

With `C/C(=N\NC(=S)NC1CCCCC1)c1ccc(Cl)c(Cl)c1` the IC50 (HEK293 [11]) was > 67.5 µM (inactive) and the IC50 [12] was > 67.5 µM (inactive).

In the case of `COc1ccccc1/C=N\Nc1ccccc1[N+](=O)[O-]`, the IC50 (HEK293 [11]) is reported as > 67.6 µM (inactive) and the IC50 [12] is reported as > 67.6 µM (inactive).
